SMILES strings stand for the structures.

This experiment has as its system mice. Nature of the experiment: Neuropharmacological Assay (SmartCube). The format is in vivo. As to conditions: i.p. 15 min before behavioral test; 3 doses, most efficacious dose(s) presented. From the text: Neurosci. […] As reported in Roberds, because psychiatric diseases generally result from disorders of cell-cell communication or circuitry, intact systems are useful in detecting improvement in disease-relevant endpoints. These endpoints are typically behavioral in nature, often requiring human observation and interpretation. To facilitate testing of multiple compounds for behavioral effects relevant to psychiatric disease, PsychoGenics, Inc. (Tarrytown, N.Y., “PGI”) developed SmartCube™, an automated system in which behaviors of compound-treated mice are captured by digital video and analyzed with computer algorithms. […] PGI Analytical Systems uses data from SmartCube™ to compare the behavioral signature of a test compound to a database of behavioral signatures obtained using a large set of diverse reference compounds. (The composition of the database as well as validation of the method is further described in Roberds). In this way, the neuropharmacological effects of a test compound can be predicted by similarity to major classes of compounds, such as antipsychotics, anxiolytics and antidepressants.
The SmartCube™ system produces an activity signature indicating the probability that the activity of the test compound at the administered dose matches a given class of neuropharmacological agents. (See, e.g., Roberds, FIGS. 2 and 3). The test compound is simultaneously compared against multiple classes of agents; thus, a separate probability is generated for each behavioral effect measured (e.g., anxiolytic activity, analgesic activity, etc.). In Table 2 and 2B, these probabilities are reported for each behavioral effect measured as follows:
where LOQ is the limit of quantification.
Provided compounds were dissolved in a mixture of Pharmasolve™ (N-methyl-2-pyrrolidone), polyethylene glycol and propylene glycol, and were injected i.p. 15 min. before the behavioral test. For each compound, injections were administered at 3 different doses. For each behavioral effect measured, results for the most efficacious dose(s) are presented.
As for `C[C@H](N)[C@H]1OCCn2nc3ccccc3c21` (relative stereo) [Compound 33, (+/−)-rel-(R)-1-((S)-3,4-dihydro-1H-[1,4]oxazino[4,3-b]indazol-1-yl) ethanaminium chloride], the “AD: ADHD (probability of class match)” value is recorded as “++++ (50%≦ ++++)”, the “AG: analgesic (probability of class match)” value (shortened to “AG: analgesic”) is “++ (5%≦ ++ <25%)”, the “AX: anxiolytic (probability of class match)” value (“AX: anxiolytic” for short) was “++ (5%≦ ++ <25%)” and the “CE: cognitive enhancer (probability of class match)” value (“CE: cognitive enhancer” for short) is recorded as “+ (LOQ≦ + <5%)”. In addition, the “DP: anti-depressant (probability of class match)” value (“DP: anti-depressant” for short) is reported as “++ (5%≦ ++ <25%)”, the “HA: hallucinogen (probability of class match)” value (from here on “HA: hallucinogen”) is listed as “++ (5%≦ ++ <25%)”, the “MS: mood stabilizer (probability of class match)” value (shortened to “MS: mood stabilizer”) is “+ (LOQ≦ + <5%)” and the “PS: anti-psychotic (probability of class match)” value (shortened to “PS: anti-psychotic”) was “+ (LOQ≦ + <5%)”. In addition, the “SD: sedative hypnotic (probability of class match)” value (from here on “SD: sedative hypnotic”) is on record as “+ (LOQ≦ + <5%)”, the “UN: uncharacterized CNS activity (probability of class match)” value (“UN: uncharacterized CNS activity” below) was “+++ (25%≦ +++ <50%)” and the “XG: anxiogenic (probability of class match)” value (from here on “XG: anxiogenic”) is “+ (LOQ≦ + <5%)”.
On to `CN[C@@H](C)[C@H]1OCCn2nc3ccccc3c21` (relative stereo) [Compound 34, (+/−)-rel-(R)-1-((S)-3,4-dihydro-1H-[1,4]oxazino[4,3-b]indazol-1-yl)-N-methylethanaminium chloride], for which the “AD: ADHD (probability of class match)” value was “+ (LOQ≦ + <5%)”, the “AG: analgesic” value was “+ (LOQ≦ + <5%)”, the “AX: anxiolytic” value is reported as “++ (5%≦ ++ <25%)” and the “CE: cognitive enhancer” value is given as “+ (LOQ≦ + <5%)”. The “DP: anti-depressant” value was “+ (LOQ≦ + <5%)”, the “HA: hallucinogen” value is recorded as “+ (LOQ≦ + <5%)”, the “MS: mood stabilizer” value is recorded as “+ (LOQ≦ + <5%)” and the “PS: anti-psychotic” value is on record as “+ (LOQ≦ + <5%)”. Also, the “SD: sedative hypnotic” value is on record as “+ (LOQ≦ + <5%)”, the “UN: uncharacterized CNS activity” value is “+ (LOQ≦ + <5%)” and the “XG: anxiogenic” value is recorded as “+ (LOQ≦ + <5%)”.
With `CNC[C@@H]1OCCn2nc3ccccc3c21` [Compound 1, (S)-(3,4-dihydro-1H-[1,4]oxazino[4,3-b]indazol-1-yl)-N-methylmethanaminium chloride], the “AD: ADHD (probability of class match)” value is listed as “+ (LOQ≦ + <5%)”, the “AG: analgesic” value is listed as “+ (LOQ≦ + <5%)”, the “AX: anxiolytic” value was “++ (5%≦ ++ <25%)” and the “CE: cognitive enhancer” value is “+ (LOQ≦ + <5%)”. For the same compound, the “DP: anti-depressant” value is “+ (LOQ≦ + <5%)”, the “HA: hallucinogen” value is listed as “+ (LOQ≦ + <5%)”, the “MS: mood stabilizer” value is reported as “+ (LOQ≦ + <5%)” and the “PS: anti-psychotic” value is recorded as “+ (LOQ≦ + <5%)”. Besides, the “SD: sedative hypnotic” value is listed as “+ (LOQ≦ + <5%)”, the “UN: uncharacterized CNS activity” value is “+ (LOQ≦ + <5%)” and the “XG: anxiogenic” value is reported as “+ (LOQ≦ + <5%)”.
Consider `CNC[C@H]1OCCn2nc3ccccc3c21.Cl` [Compound 2, (R)-(3,4-dihydro-1H-[1,4]oxazino[4,3-b]indazol-1-yl)-N-methylmethanaminium chloride], for which the “AD: ADHD (probability of class match)” value is listed as “++ (5%≦ ++ <25%)”, the “AG: analgesic” value is given as “+ (LOQ≦ + <5%)”, the “AX: anxiolytic” value is given as “++ (5%≦ ++ <25%)” and the “CE: cognitive enhancer” value is listed as “+ (LOQ≦ + <5%)”. Besides, the “DP: anti-depressant” value was “++++ (50%≦ ++++)”, the “HA: hallucinogen” value was “++++ (50%≦ ++++)”, the “MS: mood stabilizer” value is recorded as “+ (LOQ≦ + <5%)” and the “PS: anti-psychotic” value is “+ (LOQ≦ + <5%)”. In addition, the “SD: sedative hypnotic” value is “+ (LOQ≦ + <5%)”, the “UN: uncharacterized CNS activity” value was “+ (LOQ≦ + <5%)” and the “XG: anxiogenic” value is reported as “+ (LOQ≦ + <5%)”.
With `CN(C)C[C@@H]1OCCn2nc3ccccc3c21` [Compound 3, (S)-(3,4-dihydro-1H-[1,4]oxazino[4,3-b]indazol-1-yl)-N,N-dimethylmethanaminium chloride], the “AD: ADHD (probability of class match)” value is “+ (LOQ≦ + <5%)”, the “AG: analgesic” value is on record as “+ (LOQ≦ + <5%)”, the “AX: anxiolytic” value was “+ (LOQ≦ + <5%)” and the “CE: cognitive enhancer” value is “+ (LOQ≦ + <5%)”. In addition, the “DP: anti-depressant” value was “++ (5%≦ ++ <25%)”, the “HA: hallucinogen” value is “+ (LOQ≦ + <5%)”, the “MS: mood stabilizer” value was “+ (LOQ≦ + <5%)” and the “PS: anti-psychotic” value is recorded as “++ (5%≦ ++ <25%)”. In addition, the “SD: sedative hypnotic” value was “+ (LOQ≦ + <5%)”, the “UN: uncharacterized CNS activity” value was “+++ (25%≦ +++ <50%)” and the “XG: anxiogenic” value is reported as “+ (LOQ≦ + <5%)”.
For `CN(C)C[C@H]1OCCn2nc3ccccc3c21.Cl` [Compound 4, (R)-(3,4-dihydro-1H-[1,4]oxazino[4,3-b]indazol-1-yl)-N,N-dimethylmethanaminium chloride], the “AD: ADHD (probability of class match)” value is on record as “++ (5%≦ ++ <25%)”, the “AG: analgesic” value is reported as “++ (5%≦ ++ <25%)”, the “AX: anxiolytic” value is on record as “+ (LOQ≦ + <5%)” and the “CE: cognitive enhancer” value was “++ (5%≦ ++ <25%)”. The “DP: anti-depressant” value was “++++ (50%≦ ++++)”, the “HA: hallucinogen” value is “++ (5%≦ ++ <25%)”, the “MS: mood stabilizer” value is given as “+ (LOQ≦ + <5%)” and the “PS: anti-psychotic” value is “+ (LOQ≦ + <5%)”. In addition, the “SD: sedative hypnotic” value is “+ (LOQ≦ + <5%)”, the “UN: uncharacterized CNS activity” value is “++ (5%≦ ++ <25%)” and the “XG: anxiogenic” value was “+ (LOQ≦ + <5%)”.
For the compound `CNCC1OCCn2nc3ccc(Cl)cc3c21.Cl` (stereo not drawn) [Compound 5, 1-(9-chloro-3,4-dihydro-1H-[1,4]oxazino[4,3-b]indazol-1-yl)-N-methylmethanaminium chloride], the “AD: ADHD (probability of class match)” value is “+ (LOQ≦ + <5%)”, the “AG: analgesic” value is reported as “++ (5%≦ ++ <25%)”, the “AX: anxiolytic” value is on record as “+ (LOQ≦ + <5%)” and the “CE: cognitive enhancer” value is listed as “+ (LOQ≦ + <5%)”. In addition, the “DP: anti-depressant” value is listed as “++ (5%≦ ++ <25%)”, the “HA: hallucinogen” value is on record as “+ (LOQ≦ + <5%)”, the “MS: mood stabilizer” value is recorded as “+ (LOQ≦ + <5%)” and the “PS: anti-psychotic” value is listed as “+ (LOQ≦ + <5%)”. In addition, the “SD: sedative hypnotic” value is “+ (LOQ≦ + <5%)”, the “UN: uncharacterized CNS activity” value is reported as “+ (LOQ≦ + <5%)” and the “XG: anxiogenic” value is listed as “+ (LOQ≦ + <5%)”.
As for `CN(C)CC1OCCn2nc3ccc(Cl)cc3c21.Cl` (stereo not drawn) [Compound 6, 1-(9-chloro-3,4-dihydro-1H-[1,4]oxazino[4,3-b]indazol-1-yl)-N,N-dimethylmethanaminium chloride], the “AD: ADHD (probability of class match)” value was “+ (LOQ≦ + <5%)”, the “AG: analgesic” value is “++ (5%≦ ++ <25%)”, the “AX: anxiolytic” value is reported as “++ (5%≦ ++ <25%)” and the “CE: cognitive enhancer” value was “++ (5%≦ ++ <25%)”. In addition, the “DP: anti-depressant” value is “+++ (25%≦ +++ <50%)”, the “HA: hallucinogen” value is recorded as “+ (LOQ≦ + <5%)”, the “MS: mood stabilizer” value is reported as “+ (LOQ≦ + <5%)” and the “PS: anti-psychotic” value is given as “++ (5%≦ ++ <25%)”. For the same compound, the “SD: sedative hypnotic” value is on record as “+ (LOQ≦ + <5%)”, the “UN: uncharacterized CNS activity” value is listed as “+ (LOQ≦ + <5%)” and the “XG: anxiogenic” value is recorded as “+ (LOQ≦ + <5%)”.
`CNCC1OCCn2nc3ccc(F)cc3c21` (stereo not drawn) [Compound 7, 1-(9-fluoro-3,4-dihydro-1H-[1,4]oxazino[4,3-b]indazol-1-yl)-N-methylmethanaminium chloride]: the “AD: ADHD (probability of class match)” value is “+ (LOQ≦ + <5%)”, the “AG: analgesic” value is “++ (5%≦ ++ <25%)”, the “AX: anxiolytic” value is listed as “+ (LOQ≦ + <5%)” and the “CE: cognitive enhancer” value was “+ (LOQ≦ + <5%)”. Also, the “DP: anti-depressant” value was “++++ (50%≦ ++++)”, the “HA: hallucinogen” value is listed as “+ (LOQ≦ + <5%)”, the “MS: mood stabilizer” value is “+ (LOQ≦ + <5%)” and the “PS: anti-psychotic” value is on record as “+ (LOQ≦ + <5%)”. For the same compound, the “SD: sedative hypnotic” value is “+ (LOQ≦ + <5%)”, the “UN: uncharacterized CNS activity” value is “+ (LOQ≦ + <5%)” and the “XG: anxiogenic” value is “+ (LOQ≦ + <5%)”.

The record behind these values is patent US9758529B2, “Fused dihydro-4H-pyrazolo[5,1-C][1,4]oxazinyl compounds and analogs for treating CNS disorders” (Sunovion Pharmaceuticals Inc., priority 2015, dated 2017).
